Test results taken from the supplement of paper PMC8149375.
Blank lines part the entries; values can stand above or below the compound they belong to.

Columns and labels:
Conditions in all cases: treatment: drug + dasatinib (fixed dose, not stated); 5 days
TK-10 [1] = assay: GI50 of drug in presence of dasatinib; higher = less potent
Protocol: (§1)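 Primary HTS combination arm: 8 RCC cell lines treated with 8 doses (up to 10 uM) of each library drug plus a fixed dose of dasatinib (dose not stated) for 5 days; viability read by CellTiter-Glo and normalised to DMSO. GI50 was fitted with XLfit, AUC is the area under the dose-response curve, and minimum viability is the lowest fraction of DMSO viability across doses.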

CAKI-1 [2] = assay: as above
Protocol: as §1

SN12C [3] = assay: as above
Protocol: as §1

786-O [4] = assay: as above
Protocol: as §1

UO-31 [5] = assay: as above
Protocol: as §1

769-P [6] = assay: as above
Protocol: as §1

A498 [7] = assay: as above
Protocol: as §1

TK-10 [8] = assay: minimum viability across doses, drug + dasatinib, relative to DMSO (fraction); higher = less growth inhibition
Protocol: as §1

CAKI-1 [9] = assay: as above
Protocol: as §1

SN12C [10] = assay: as above
Protocol: as §1

786-O [11] = assay: as above
Protocol: as §1

UO-31 [12] = assay: as above
Protocol: as §1

769-P [13] = assay: as above
Protocol: as §1

ACHN [14] = assay: as above
Protocol: as §1

A498 [15] = assay: as above
Protocol: as §1

TK-10 [16] = assay: AUC of dose-response viability curve, drug + dasatinib, normalised to DMSO (arbitrary (AUC of normalised viability)); higher = less growth inhibition
Protocol: as §1

CAKI-1 [17] = assay: as above
Protocol: as §1

SN12C [18] = assay: as above
Protocol: as §1

786-O [19] = assay: as above
Protocol: as §1

UO-31 [20] = assay: as above
Protocol: as §1

769-P [21] = assay: as above
Protocol: as §1

ACHN [22] = assay: as above
Protocol: as §1

A498 [23] = assay: as above
Protocol: as §1

ACHN [24] = assay: GI50 of drug in presence of dasatinib; higher = less potent
Protocol: as §1

GI50 of drug (786-O [4]): 5.68 µM
SMILES: Cn1cc(-c2ccc3nnc(Sc4ccc5ncccc5c4)n3n2)cn1 [SGX-523] + Cc1nc(Nc2ncc(C(=O)Nc3c(C)cccc3Cl)s2)cc(N2CCN(CCO)CC2)n1 [dasatinib]
GI50 of drug (TK-10 [1]): > 10 µM | GI50 of drug (CAKI-1 [2]): 5.5 µM | GI50 of drug (SN12C [3]): > 10 µM | GI50 of drug (UO-31 [5]): > 10 µM | GI50 of drug (769-P [6]): > 10 µM | GI50 of drug (A498 [7]): > 10 µM | minimum viability across doses (TK-10 [8]): 0.646 | minimum viability across doses (CAKI-1 [9]): 0.41 | minimum viability across doses (SN12C [10]): 0.679 | minimum viability across doses (786-O [11]): 0.477 | minimum viability across doses (UO-31 [12]): 0.836 | minimum viability across doses (769-P [13]): 0.548 | minimum viability across doses (ACHN [14]): 0.452 | minimum viability across doses (A498 [15]): 0.743 | AUC of dose-response viability curve (TK-10 [16]): 2.41 | AUC of dose-response viability curve (CAKI-1 [17]): 1.92 | AUC of dose-response viability curve (SN12C [18]): 2.46 | AUC of dose-response viability curve (786-O [19]): 2.25 | AUC of dose-response viability curve (UO-31 [20]): 3.15 | AUC of dose-response viability curve (769-P [21]): 2.38 | AUC of dose-response viability curve (ACHN [22]): 1.87 | AUC of dose-response viability curve (A498 [23]): 2.84

GI50 of drug (786-O [4]): < 0.003 µM | GI50 of drug (ACHN [24]): 0.0373 µM
SMILES: COc1cc(N2CCC(N3CCN(C)CC3)CC2)ccc1Nc1ncc(Cl)c(Nc2ccccc2S(=O)(=O)C(C)C)n1 [TAE684 (NVP-TAE684)] + Cc1nc(Nc2ncc(C(=O)Nc3c(C)cccc3Cl)s2)cc(N2CCN(CCO)CC2)n1 [dasatinib]
GI50 of drug (TK-10 [1]): 0.64 µM | GI50 of drug (CAKI-1 [2]): 0.224 µM | GI50 of drug (SN12C [3]): 0.427 µM | GI50 of drug (A498 [7]): 2.87 µM | minimum viability across doses (TK-10 [8]): 0.206 | minimum viability across doses (CAKI-1 [9]): 0.0167 | minimum viability across doses (SN12C [10]): 0.0423 | minimum viability across doses (786-O [11]): 0.0739 | minimum viability across doses (UO-31 [12]): 0.0115 | minimum viability across doses (769-P [13]): 0.23 | minimum viability across doses (ACHN [14]): 0.0286 | minimum viability across doses (A498 [15]): 0.348 | AUC of dose-response viability curve (TK-10 [16]): 2.06 | AUC of dose-response viability curve (CAKI-1 [17]): 1.51 | AUC of dose-response viability curve (SN12C [18]): 1.82 | AUC of dose-response viability curve (786-O [19]): 1.55 | AUC of dose-response viability curve (UO-31 [20]): 2.04 | AUC of dose-response viability curve (769-P [21]): 1.83 | AUC of dose-response viability curve (ACHN [22]): 1.15 | AUC of dose-response viability curve (A498 [23]): 2.64

GI50 of drug (786-O [4]): 0.0101 µM
SMILES: O=c1sn(-c2cccc3ccccc23)c(=O)n1Cc1ccccc1 [Tideglusib] + Cc1nc(Nc2ncc(C(=O)Nc3c(C)cccc3Cl)s2)cc(N2CCN(CCO)CC2)n1 [dasatinib]
GI50 of drug (TK-10 [1]): > 10 µM | GI50 of drug (CAKI-1 [2]): > 10 µM | GI50 of drug (SN12C [3]): > 10 µM | GI50 of drug (UO-31 [5]): > 10 µM | GI50 of drug (769-P [6]): > 10 µM | GI50 of drug (A498 [7]): > 10 µM | minimum viability across doses (TK-10 [8]): 0.642 | minimum viability across doses (CAKI-1 [9]): 0.664 | minimum viability across doses (SN12C [10]): 0.672 | minimum viability across doses (786-O [11]): 0.429 | minimum viability across doses (UO-31 [12]): 1.03 | minimum viability across doses (769-P [13]): 0.632 | minimum viability across doses (ACHN [14]): 0.357 | minimum viability across doses (A498 [15]): 0.729 | AUC of dose-response viability curve (TK-10 [16]): 2.33 | AUC of dose-response viability curve (CAKI-1 [17]): 2.44 | AUC of dose-response viability curve (SN12C [18]): 2.5 | AUC of dose-response viability curve (786-O [19]): 1.76 | AUC of dose-response viability curve (UO-31 [20]): 4.27 | AUC of dose-response viability curve (769-P [21]): 2.52 | AUC of dose-response viability curve (ACHN [22]): 1.79 | AUC of dose-response viability curve (A498 [23]): 3.01

GI50 of drug (786-O [4]): > 10 µM
SMILES: CCO.N#CC(=C(/N)Sc1ccccc1N)/C(C#N)=C(\N)Sc1ccccc1N [U0126-EtOH] + Cc1nc(Nc2ncc(C(=O)Nc3c(C)cccc3Cl)s2)cc(N2CCN(CCO)CC2)n1 [dasatinib]
GI50 of drug (TK-10 [1]): > 10 µM | GI50 of drug (CAKI-1 [2]): 6.71 µM | GI50 of drug (SN12C [3]): > 10 µM | GI50 of drug (UO-31 [5]): > 10 µM | GI50 of drug (769-P [6]): > 10 µM | GI50 of drug (A498 [7]): > 10 µM | minimum viability across doses (TK-10 [8]): 0.524 | minimum viability across doses (CAKI-1 [9]): 0.46 | minimum viability across doses (SN12C [10]): 0.598 | minimum viability across doses (786-O [11]): 0.526 | minimum viability across doses (UO-31 [12]): 0.792 | minimum viability across doses (769-P [13]): 0.68 | minimum viability across doses (ACHN [14]): 0.353 | minimum viability across doses (A498 [15]): 0.888 | AUC of dose-response viability curve (TK-10 [16]): 2.65 | AUC of dose-response viability curve (CAKI-1 [17]): 2.37 | AUC of dose-response viability curve (SN12C [18]): 2.4 | AUC of dose-response viability curve (786-O [19]): 2.5 | AUC of dose-response viability curve (UO-31 [20]): 3.2 | AUC of dose-response viability curve (769-P [21]): 2.5 | AUC of dose-response viability curve (ACHN [22]): 1.84 | AUC of dose-response viability curve (A498 [23]): 3.54

GI50 of drug (786-O [4]): > 10 µM
SMILES: NC(=O)c1ccc(N(C(N)=O)c2c(F)cccc2F)nc1-c1ccc(F)cc1F [VX-702] + Cc1nc(Nc2ncc(C(=O)Nc3c(C)cccc3Cl)s2)cc(N2CCN(CCO)CC2)n1 [dasatinib]
GI50 of drug (TK-10 [1]): > 10 µM | GI50 of drug (CAKI-1 [2]): > 10 µM | GI50 of drug (SN12C [3]): > 10 µM | GI50 of drug (UO-31 [5]): > 10 µM | GI50 of drug (769-P [6]): > 10 µM | GI50 of drug (A498 [7]): > 10 µM | minimum viability across doses (TK-10 [8]): 0.598 | minimum viability across doses (CAKI-1 [9]): 0.649 | minimum viability across doses (SN12C [10]): 0.685 | minimum viability across doses (786-O [11]): 0.547 | minimum viability across doses (UO-31 [12]): 1.12 | minimum viability across doses (769-P [13]): 0.627 | minimum viability across doses (ACHN [14]): 0.409 | minimum viability across doses (A498 [15]): 0.887 | AUC of dose-response viability curve (TK-10 [16]): 2.39 | AUC of dose-response viability curve (CAKI-1 [17]): 2.43 | AUC of dose-response viability curve (SN12C [18]): 2.54 | AUC of dose-response viability curve (786-O [19]): 2.23 | AUC of dose-response viability curve (UO-31 [20]): 4.36 | AUC of dose-response viability curve (769-P [21]): 2.4 | AUC of dose-response viability curve (ACHN [22]): 1.87 | AUC of dose-response viability curve (A498 [23]): 3.52

GI50 of drug (786-O [4]): > 10 µM
SMILES: Cl.Cl.Clc1ccc(Nc2nnc(Cc3ccncc3)c3ccccc23)cc1 [Vatalanib dihydrochloride (PTK787)] + Cc1nc(Nc2ncc(C(=O)Nc3c(C)cccc3Cl)s2)cc(N2CCN(CCO)CC2)n1 [dasatinib]
GI50 of drug (TK-10 [1]): > 10 µM | GI50 of drug (CAKI-1 [2]): 2.76 µM | GI50 of drug (SN12C [3]): > 10 µM | GI50 of drug (UO-31 [5]): > 10 µM | GI50 of drug (769-P [6]): 7.92 µM | GI50 of drug (A498 [7]): > 10 µM | minimum viability across doses (TK-10 [8]): 0.666 | minimum viability across doses (CAKI-1 [9]): 0.217 | minimum viability across doses (SN12C [10]): 0.632 | minimum viability across doses (786-O [11]): 0.549 | minimum viability across doses (UO-31 [12]): 0.834 | minimum viability across doses (769-P [13]): 0.433 | minimum viability across doses (ACHN [14]): 0.474 | minimum viability across doses (A498 [15]): 0.729 | AUC of dose-response viability curve (TK-10 [16]): 2.63 | AUC of dose-response viability curve (CAKI-1 [17]): 2.04 | AUC of dose-response viability curve (SN12C [18]): 2.32 | AUC of dose-response viability curve (786-O [19]): 2.65 | AUC of dose-response viability curve (UO-31 [20]): 3.35 | AUC of dose-response viability curve (769-P [21]): 2.3 | AUC of dose-response viability curve (ACHN [22]): 1.91 | AUC of dose-response viability curve (A498 [23]): 3.2
